How the values were obtained:
[1] = species on record: Cavia porcellus; assay: Concentration required to antagonize the histamine induced contractile response of guinea pig ileum; type: functional; details: read-out: pA2 (converted)
[2] = Dose causing 50% death of the population when tested in mice; type: ADME; details: mouse, in vivo

Compound	Kb [1]	LD50 [2]
COc1ccc(CCN2CCC(C(=O)c3nc4ccccc4s3)CC2)cc1	0.501 nM	> 400 mg/kg
COc1ccc(CCN2CCC(C(O)(c3ccccc3)c3nc4ccccc4s3)CC2)cc1 (centres undefined)	39.8 nM	
COc1ccc(OCCCN2CCC(C(=O)c3nc4ccccc4s3)CC2)cc1	5.01 nM	> 400 mg/kg
COc1ccc(CCN2CCC(C(O)c3nc4ccccc4s3)CC2)cc1 (centres undefined)	6.31 nM	
C=C(c1nc2ccccc2s1)C1CCN(CCc2ccc(OC)cc2)CC1	1.58 nM	
O=C(c1nc2ccccc2s1)C1CCN(CCc2ccccc2)CC1	15.8 nM	> 400 mg/kg
COc1cccc(CN2CCC(C(=O)c3nc4ccccc4s3)CC2)c1	50.1 nM	400 mg/kg
COC(=O)CN1CCC(C(=O)c2nc3ccccc3s2)CC1	~100 nM	> 400 mg/kg
COC(=O)c1ccc(OCCCN2CCC(C(=O)c3nc4ccccc4s3)CC2)cc1	2.51 nM	> 400 mg/kg
CC(=O)Nc1ccc(OCCCN2CCC(C(=O)c3nc4ccccc4s3)CC2)cc1	7.94 nM	> 400 mg/kg
O=C(c1nc2ccccc2s1)C1CCN(CCc2ccc(F)cc2)CC1	3.98 nM	> 400 mg/kg
